Numbers after ± are expanded uncertainties.
Assay: xn = mol fraction of the nth substance listed
Details: 101 kPa, Liquid; for viscosity: Falling or rolling sphere viscometry; for speed of sound: Sing-around technique in a fixed-path interferometer; for mass density: Vibrating tube method

Compound: CCn1cc[n+](C)c1.O=S(=O)([N-]S(=O)(=O)C(F)(F)F)C(F)(F)F + CCO
- viscosity (278.15 K, x1 = 0.051): 2.42 ± 0.02 mPa·s
- viscosity (278.15 K, x1 = 0.102): 3.44 ± 0.03 mPa·s
- viscosity (278.15 K, x1 = 0.198): 5.9 ± 0.05 mPa·s
- viscosity (278.15 K, x1 = 0.292): 8.91 ± 0.07 mPa·s
- viscosity (278.15 K, x1 = 0.402): 13.41 ± 0.11 mPa·s
- viscosity (278.15 K, x1 = 0.501): 18.24 ± 0.14 mPa·s
- viscosity (278.15 K, x1 = 0.619): 25.83 ± 0.2 mPa·s
- viscosity (278.15 K, x1 = 0.71): 33.19 ± 0.26 mPa·s
- viscosity (278.15 K, x1 = 0.811): 43.83 ± 0.34 mPa·s
- viscosity (278.15 K, x1 = 0.907): 56.33 ± 0.23 mPa·s
- viscosity (278.15 K, x1 = 1): 75.08 ± 1 mPa·s
- speed of sound (278.15 K, x1 = 0.051): 1201.4 ± 0.63 m/s
- speed of sound (278.15 K, x1 = 0.102): 1199.9 ± 0.63 m/s
- speed of sound (278.15 K, x1 = 0.198): 1210.6 ± 0.63 m/s
- speed of sound (278.15 K, x1 = 0.292): 1224.4 ± 0.64 m/s
- speed of sound (278.15 K, x1 = 0.402): 1239.1 ± 0.65 m/s
- speed of sound (278.15 K, x1 = 0.501): 1250.3 ± 0.65 m/s
- speed of sound (278.15 K, x1 = 0.619): 1261.2 ± 0.65 m/s
- speed of sound (278.15 K, x1 = 0.71): 1268.1 ± 0.66 m/s
- speed of sound (278.15 K, x1 = 0.811): 1274.8 ± 0.66 m/s
- speed of sound (278.15 K, x1 = 0.907): 1280 ± 0.66 m/s
- speed of sound (278.15 K, x1 = 1): 1284.9 ± 0.66 m/s
- mass density (278.15 K, x1 = 0.051): 946.21 ± 0.14 kg/m3
- mass density (278.15 K, x1 = 0.102): 1052.67 ± 0.18 kg/m3
- mass density (278.15 K, x1 = 0.198): 1191.39 ± 0.26 kg/m3
- mass density (278.15 K, x1 = 0.292): 1281.48 ± 0.28 kg/m3
- mass density (278.15 K, x1 = 0.402): 1356.04 ± 0.3 kg/m3
- mass density (278.15 K, x1 = 0.501): 1405.04 ± 0.29 kg/m3
- mass density (278.15 K, x1 = 0.619): 1449.8 ± 0.25 kg/m3
- mass density (278.15 K, x1 = 0.71): 1476.96 ± 0.24 kg/m3
- mass density (278.15 K, x1 = 0.811): 1502.1 ± 0.24 kg/m3
- mass density (278.15 K, x1 = 0.907): 1521.68 ± 0.24 kg/m3
- mass density (278.15 K, x1 = 1): 1538.23 ± 0.25 kg/m3
- viscosity (298.15 K, x1 = 0.051): 1.57 ± 0.01 mPa·s
- viscosity (298.15 K, x1 = 0.102): 2.16 ± 0.02 mPa·s
- viscosity (298.15 K, x1 = 0.198): 3.47 ± 0.03 mPa·s
- viscosity (298.15 K, x1 = 0.292): 5.02 ± 0.04 mPa·s
- viscosity (298.15 K, x1 = 0.402): 7.16 ± 0.06 mPa·s
- viscosity (298.15 K, x1 = 0.501): 9.66 ± 0.08 mPa·s
- viscosity (298.15 K, x1 = 0.619): 13.22 ± 0.1 mPa·s
- viscosity (298.15 K, x1 = 0.71): 16.41 ± 0.13 mPa·s
- viscosity (298.15 K, x1 = 0.811): 20.91 ± 0.16 mPa·s
- viscosity (298.15 K, x1 = 0.907): 25.67 ± 0.2 mPa·s
- viscosity (298.15 K, x1 = 1): 32.02 ± 0.25 mPa·s
- speed of sound (298.15 K, x1 = 0.051): 1139.3 ± 0.61 m/s
- speed of sound (298.15 K, x1 = 0.102): 1142.6 ± 0.61 m/s
- speed of sound (298.15 K, x1 = 0.198): 1158.2 ± 0.61 m/s
- speed of sound (298.15 K, x1 = 0.292): 1174.5 ± 0.62 m/s
- speed of sound (298.15 K, x1 = 0.402): 1190.9 ± 0.63 m/s
- speed of sound (298.15 K, x1 = 0.501): 1203 ± 0.63 m/s
- speed of sound (298.15 K, x1 = 0.619): 1214.6 ± 0.64 m/s
- speed of sound (298.15 K, x1 = 0.71): 1222 ± 0.64 m/s
- speed of sound (298.15 K, x1 = 0.811): 1229 ± 0.64 m/s
- speed of sound (298.15 K, x1 = 0.907): 1234.4 ± 0.64 m/s
- speed of sound (298.15 K, x1 = 1): 1240.1 ± 0.64 m/s
- mass density (298.15 K, x1 = 0.051): 927.85 ± 0.14 kg/m3
- mass density (298.15 K, x1 = 0.102): 1033.54 ± 0.17 kg/m3
- mass density (298.15 K, x1 = 0.198): 1171.44 ± 0.26 kg/m3
- mass density (298.15 K, x1 = 0.292): 1261.14 ± 0.27 kg/m3
- mass density (298.15 K, x1 = 0.402): 1335.52 ± 0.29 kg/m3
- mass density (298.15 K, x1 = 0.501): 1384.32 ± 0.28 kg/m3
- mass density (298.15 K, x1 = 0.619): 1429.22 ± 0.24 kg/m3
- mass density (298.15 K, x1 = 0.71): 1456.41 ± 0.23 kg/m3
- mass density (298.15 K, x1 = 0.811): 1481.59 ± 0.23 kg/m3
- mass density (298.15 K, x1 = 0.907): 1501.19 ± 0.23 kg/m3
- mass density (298.15 K, x1 = 1): 1517.76 ± 0.24 kg/m3
- viscosity (318.15 K, x1 = 0.051): 1.09 ± 0.01 mPa·s
- viscosity (318.15 K, x1 = 0.102): 1.46 ± 0.01 mPa·s
- viscosity (318.15 K, x1 = 0.198): 2.27 ± 0.02 mPa·s
- viscosity (318.15 K, x1 = 0.292): 3.21 ± 0.03 mPa·s
- viscosity (318.15 K, x1 = 0.402): 4.59 ± 0.04 mPa·s
- viscosity (318.15 K, x1 = 0.501): 5.85 ± 0.05 mPa·s
- viscosity (318.15 K, x1 = 0.619): 7.84 ± 0.06 mPa·s
- viscosity (318.15 K, x1 = 0.71): 9.67 ± 0.08 mPa·s
- viscosity (318.15 K, x1 = 0.811): 11.96 ± 0.09 mPa·s
- viscosity (318.15 K, x1 = 0.907): 14.35 ± 0.11 mPa·s
- viscosity (318.15 K, x1 = 1): 17.32 ± 0.14 mPa·s
- speed of sound (318.15 K, x1 = 0.051): 1079.4 ± 0.58 m/s
- speed of sound (318.15 K, x1 = 0.102): 1087.3 ± 0.59 m/s
- speed of sound (318.15 K, x1 = 0.198): 1107.7 ± 0.6 m/s
- speed of sound (318.15 K, x1 = 0.292): 1126.5 ± 0.6 m/s
- speed of sound (318.15 K, x1 = 0.402): 1144.5 ± 0.61 m/s
- speed of sound (318.15 K, x1 = 0.501): 1157.6 ± 0.62 m/s
- speed of sound (318.15 K, x1 = 0.619): 1170 ± 0.62 m/s
- speed of sound (318.15 K, x1 = 0.71): 1177.9 ± 0.62 m/s
- speed of sound (318.15 K, x1 = 0.811): 1185.3 ± 0.62 m/s
- speed of sound (318.15 K, x1 = 0.907): 1191.2 ± 0.63 m/s
- speed of sound (318.15 K, x1 = 1): 1196.6 ± 0.63 m/s
- mass density (318.15 K, x1 = 0.051): 909.21 ± 0.14 kg/m3
- mass density (318.15 K, x1 = 0.102): 1014.18 ± 0.17 kg/m3
- mass density (318.15 K, x1 = 0.198): 1151.39 ± 0.25 kg/m3
- mass density (318.15 K, x1 = 0.292): 1240.83 ± 0.27 kg/m3
- mass density (318.15 K, x1 = 0.402): 1315.11 ± 0.29 kg/m3
- mass density (318.15 K, x1 = 0.501): 1363.99 ± 0.28 kg/m3
- mass density (318.15 K, x1 = 0.619): 1408.9 ± 0.24 kg/m3
- mass density (318.15 K, x1 = 0.71): 1436.15 ± 0.22 kg/m3
- mass density (318.15 K, x1 = 0.811): 1461.4 ± 0.22 kg/m3
- mass density (318.15 K, x1 = 0.907): 1481.05 ± 0.23 kg/m3
- mass density (318.15 K, x1 = 1): 1497.65 ± 0.23 kg/m3
- viscosity (338.15 K, x1 = 0.051): 0.79 ± 0.01 mPa·s
- viscosity (338.15 K, x1 = 0.102): 1.05 ± 0.01 mPa·s
- viscosity (338.15 K, x1 = 0.198): 1.6 ± 0.01 mPa·s
- viscosity (338.15 K, x1 = 0.292): 2.23 ± 0.02 mPa·s
- viscosity (338.15 K, x1 = 0.402): 3.16 ± 0.03 mPa·s
- viscosity (338.15 K, x1 = 0.501): 3.99 ± 0.03 mPa·s
- viscosity (338.15 K, x1 = 0.619): 5.23 ± 0.04 mPa·s
- viscosity (338.15 K, x1 = 0.71): 6.35 ± 0.05 mPa·s
- viscosity (338.15 K, x1 = 0.811): 7.7 ± 0.06 mPa·s
- viscosity (338.15 K, x1 = 0.907): 9.11 ± 0.07 mPa·s
- viscosity (338.15 K, x1 = 1): 10.82 ± 0.08 mPa·s
- speed of sound (338.15 K, x1 = 0.051): 1020.7 ± 0.56 m/s
- speed of sound (338.15 K, x1 = 0.102): 1033.2 ± 0.57 m/s
- speed of sound (338.15 K, x1 = 0.198): 1058.3 ± 0.58 m/s
- speed of sound (338.15 K, x1 = 0.292): 1079.7 ± 0.59 m/s
- speed of sound (338.15 K, x1 = 0.402): 1099.7 ± 0.59 m/s
- speed of sound (338.15 K, x1 = 0.501): 1113.9 ± 0.6 m/s
- speed of sound (338.15 K, x1 = 0.619): 1127.3 ± 0.6 m/s
- speed of sound (338.15 K, x1 = 0.71): 1135.6 ± 0.61 m/s
- speed of sound (338.15 K, x1 = 0.811): 1143.7 ± 0.61 m/s
- speed of sound (338.15 K, x1 = 0.907): 1150 ± 0.61 m/s
- speed of sound (338.15 K, x1 = 1): 1155.8 ± 0.61 m/s
- mass density (338.15 K, x1 = 0.051): 889.98 ± 0.15 kg/m3
- mass density (338.15 K, x1 = 0.102): 994.4 ± 0.17 kg/m3
- mass density (338.15 K, x1 = 0.198): 1131.14 ± 0.25 kg/m3
- mass density (338.15 K, x1 = 0.292): 1220.47 ± 0.26 kg/m3
- mass density (338.15 K, x1 = 0.402): 1294.8 ± 0.28 kg/m3
- mass density (338.15 K, x1 = 0.501): 1343.74 ± 0.27 kg/m3
- mass density (338.15 K, x1 = 0.619): 1388.81 ± 0.23 kg/m3
- mass density (338.15 K, x1 = 0.71): 1416.16 ± 0.21 kg/m3
- mass density (338.15 K, x1 = 0.811): 1441.5 ± 0.21 kg/m3
- mass density (338.15 K, x1 = 0.907): 1461.23 ± 0.22 kg/m3
- mass density (338.15 K, x1 = 1): 1477.86 ± 0.22 kg/m3

— the NIST ThermoML archive (doi:10.1021/je500594z)
